Assay results reported in PMC11642044 (International Journal of Molecular Sciences, 2024).

Columns and labels:
Assay type in all cases: cell-based, human
p38 in U87-MG cells = assay: p38 phosphorylation in U87-MG by SK-N-MC-derived conditioned media (CM-SK); details: HOE-140 5 μM, 15 min pre-treatment
Description: (§1) These conditioned media were either immediately applied to SK-N-SH/SK-N-MC cells (80–100% confluence) in 6-well plates for 15 min, or subjected to heat treatment on a 96 °C heat block for 5 min, and then cooled to 37 °C before they were applied to the SK-N-SH/SK-N-MC cells for 15 min. […] For the SK-N-MC-derived conditioned media, SK-N-MC cells (80–100% confluence) in a 10 cm culture dish were serum-starved in 10 mL of MEM (without FBS), with 1 mL of the resulting conditioned medium being collected at indicated time points (15 min, 1 h, 3 h, 6 h). Simultaneously, U87-MG cells (80–100% confluence) in 12-well plates were serum-starved in MEM for 6 h, followed by pretreatment of […] (5 μM, 15 min), and then challenged with the SK-N-MC-derived conditioned media (mentioned above) for 10 min before cell lysis. […]
(§2) SDS-PAGE and Western blotting were performed as described in our previous studies. […] The amount of protein in each sample was determined by detergent compatible (DC) protein assay according to the supplier’s instruction (Bio-Rad, Hercules, CA, USA). […] Resolved proteins were detected by specific primary antibodies and horseradish peroxidase-conjugated secondary antisera. The level of β-actin was determined as an internal control.

[1] = tested on: B2R-mediated LIF secretion in U87-MG cells; assay: Inhibition of bradykinin-induced LIF production (ELISA), U87-MG; details: 5 μM HOE-140, 30 min pre-treatment, bradykinin 1 µM, 24 h
Description: Conditioned media were analyzed for the presence of multiple cytokines by using the cytokine multiplex assay kits (Merck Millipore, MA, USA) as previously described. Briefly, a bead mixture with various capture antibodies (50 μL) was added to a 96-well microtiter plate, followed by 50 μL of cytokine standard mix or test sample and then 25 μL of a biotinylated detection antibody mixture. The mixtures were incubated for 30 min at 25 °C with gentle shaking. Unbound antibodies were removed by three gentle washes. Finally, 50 μL of streptavidin–PE solution was added and incubated for another 30 min with gentle shaking. The detection beads were then washed again and resuspended in 120 μL of reading buffer. The Bio-Plex™ 200 system (Bio-Rad Laboratories, Hercules, CA, USA) with the Bio-Plex manager software (version 5.0) was utilized for signal detection and data analysis. Curve fitting was applied to each standard curve according to the manufacturer’s manual and sample concentrations were interpolated from the standard curves. Individual detections for LIF and IL-6 were performed using the corresponding ELISA kits from Abcam (Cambridge, UK) according to the manufacturer’s instructions.
(§3) The resulting Ca^2+ signal profiles were monitored by FLIPR for 3 min.

ERK = assay: Stimulatory phosphorylation of ERK (Western blot), U87-MG; details: 5 μM HOE-140, 1 µM bradykinin, 10 min
Description: as §3
(§4) SDS-PAGE and Western blotting were performed as described in our previous studies. In brief, cells in 6-well plates (5 × 10^5 cells/well) were lysed in 500 μL of ice-cold lysis buffer (50 mM Tris-HCl at pH 7.5 containing 100 mM NaCl, 5 mM EDTA, 40 mM NaP2O7, 1% Triton X-100, 1 mM dithiothreitol, 200 μM Na3VO4, 100 μM phenylmethylsulfonyl fluoride, 2 μg/mL leupeptin, 4 μg/mL aprotinin, and 0.7 μg/mL pepstatin) and then gently shaken for 30 min. The amount of protein in each sample was determined by detergent compatible (DC) protein assay according to the supplier’s instruction (Bio-Rad, Hercules, CA, USA). Clarified lysates (30 μg protein per sample) were resolved on 12% SDS-polyacrylamide gels and then transferred to nitrocellulose membranes (Westborough, MA, USA). Resolved proteins were detected by specific primary antibodies and horseradish peroxidase-conjugated secondary antisera. The level of β-actin was determined as an internal control. […] Chemiluminescence signals were then detected by ChemiDoc imaging systems (Bio-Rad, Hercules, CA, USA) with the subsequent band densities quantified by ImageJ (https://imagej.net/ij/) analysis software (National Institutes of Health, MD, USA). […]
(§5) Chemiluminescence signals were then detected by the ChemiDoc Imaging Systems (Bio-Rad, […]

JNK = assay: Stimulatory phosphorylation of JNK (Western blot), U87-MG; details: 5 μM HOE-140, 1 µM bradykinin, 10 min
Description: as §3, §4, §5

ERK in U87-MG cells = assay: ERK phosphorylation in U87-MG by SK-N-MC-derived conditioned media (CM-SK); details: HOE-140 5 μM, 15 min pre-treatment
Description: as §1, §2

p38 MAPK = assay: Stimulatory phosphorylation of p38 MAPK (Western blot), U87-MG; details: 5 μM HOE-140, 1 µM bradykinin, 10 min
Description: as §3, §4, §5

JNK in U87-MG cells = assay: JNK phosphorylation in U87-MG by SK-N-MC-derived conditioned media (CM-SK); details: HOE-140 5 μM, 15 min pre-treatment
Description: as §1, §2

HOE-140
inhibition of CM-SK-stimulated p38 phosphorylation (p38 in U87-MG cells): significantly inhibited
inhibition of bradykinin-induced LIF production [1]: blocked the ability of bradykinin to stimulate LIF production
inhibition of bradykinin-induced ERK activation (ERK): completely abolished
inhibition of bradykinin-induced JNK activation (JNK): completely abolished
inhibition of CM-SK-stimulated ERK phosphorylation (ERK in U87-MG cells): significantly inhibited
inhibition of bradykinin-induced p38 MAPK activation (p38 MAPK): completely abolished
inhibition of CM-SK-stimulated JNK phosphorylation (JNK in U87-MG cells): significantly inhibited
